In patent US9238034B2, “FN14 antagonists and therapeutic uses thereof” (THE TRANSLATIONAL GENOMICS RESEARCH INSTITUTE, priority 2013, dated 2016):

Molecular target: T1, TWEAK (Homo sapiens, UniProt O43508)
T1 sequence (O43508 94-249 limits assumed): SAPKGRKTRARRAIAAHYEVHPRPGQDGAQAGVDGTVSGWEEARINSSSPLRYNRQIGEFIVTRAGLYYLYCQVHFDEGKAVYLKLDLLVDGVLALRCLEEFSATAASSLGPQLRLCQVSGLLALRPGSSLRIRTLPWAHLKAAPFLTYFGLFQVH
Assay: Surface Plasmon Resonance assay, TWEAK sensor surface
Assay type: binding
Details: SPR, 0 to 50 μM
Protocol: Surface Plasmon Resonance (SPR) Assay. The binding affinity of at least one of the compounds (e.g., L524-0366) to TWEAK and Fn14-Fx was determined using a BIAcore T100 optical biosensor (GE Healthcare) at 25 degrees Celsius at the Arizona Proteomics Consortium. Recombinant human TWEAK (20 μg/mL in 10 mM HEPES pH 7.4, 150 mM NaCl, 3 mM EDTA, 0.05% Tween 20) or recombinant human Fn14-Fc (20 μg/mL in 10 mM NaOAc pH 4.0) were covalently coupled to separate flow cells on a BIAcore CM5 sensor chip using standard amine coupling chemistry as per manufacturer's protocol. Final immobilization levels were 6000 Response Units (RU) for TWEAK and 13,000 RU for FN14-Fc. The first flow path of the chip was treated with the same coupling and blocking reagents without protein and was used as a reference for each binding cycle. Functionality of the TWEAK and the Fn14-Fc sensor surfaces were verified by injecting Fn14-Fc and TWEAK over them respectively. Serial dilutions of L524-0366 or cycloheximide (control) from 0 to 50 μM were made in running buffer (10 mM HEPES pH 7.4, 150 mM NaCl, 3 mM EDTA, 1% DMSO). […] Equilibrium dissociation constants for the small molecules were calculated by fitting the double reference subtracted data to Req=((CRmax)/(KD+C))+RI, where RI is the bulk refractive index contribution.

O=C(c1cn(-c2cccc(Cl)c2)nn1)N1CCSCC1 [Compound L524-0366]
binding to TWEAK: not to the TWEAK surface
